≈ marks a conversion by molar mass, not a printed value. Like-named read-outs stand apart in the source and are kept apart here.
Experiments:
[1] = test system: Candida albicans ATCC 10231; experiment: Antifungal MIC/MLC (broth microdilution); type: cell-based
Source text: (§1) Twenty-three fungal strains were used in this study, including reference strains and clinical isolates of yeasts and filamentous fungi. Yeast strains included reference strains (ATCC—American Type Culture Collection and CECT—Colección Española de Cultivos Tipo) and clinical isolates: C. albicans ATCC 10231, Candida krusei ATCC 6258, C. albicans H37, C. albicans FF172, C. albicans FF176, C. albicans DSY294, C. albicans DSY296, C. glabrata DSY562, C. glabrata DSY565 and Cryptococcus neoformans CECT 1078. Filamentous fungi included Aspergillus fumigatus ATCC 240305, A. fumigatus C111, A. niger ATCC 16404, A. flavus F44, Fusarium solani FF125, F. oxysporum FF115, and dermatophytes Trichophyton rubrum FF5, T. mentagrophytes FF7, Microscoporum canis FF1 and Nannizzia gypsea FF3 (formerly Microsporum gypseum) and a species of genera Mucor, Lichetheimia and Scedosporium. Saprolegnia parasitica CBS 223.65, a reference strain of an oomycete fish pathogen, was also included. All microorganisms were kept in Sabouraud Dextrose Broth (SDB: BioMérieux, Marcy L'Etoile, France) plus glycerol (20%) at −80° C. The strains were kept in Sabouraud Dextrose Agar (SDA: BioMérieux, Marcy L'Etoile, France) slants and were sub-cultured in SDA before each test. S. parasitica was kept in Corn Meal Agar plates (CMA: BBL™ Corn Meal Agar, BD, Le Pont-de-Claix, France) and was sub-cultured in CMA before each experiment. C. albicans H37, was kindly provided by Cidilia Pina Vaz (CHSJ, Porto, Portugal) and C. albicans DSY294, C. albicans DSY296, C. glabrata DSY562, C. glabrata DSY565 were kindly provided by D. Sanglard (University of Lausanne, Switzerland). A stock solution of compound 1 (10 mg/mL), was prepared in dimethyl sulfoxide (DMSO 99%: Alfa Aesar, Kandel, Germany), kept at −20 degrees C., and freshly diluted in the appropriate culture media before each assay. In all experiments, in-test concentrations of DMSO were kept below 2%.
(§2) Antifungal activity was evaluated by determining the MIC of compound 1 by the broth microdilution method, according to CLSI guidelines (reference documents M27-A3 for yeasts and M38-A2 for filamentous fungi). Briefly, cell or spore suspensions were prepared in RPMI-1640 broth medium (Biochrom, Berlin, Germany) buffered with 3-(N-morpholino)propane sulfonic acid (MOPS) (Sigma-Aldrich, St. Louis, MO, USA) (henceforth referred to as RPMI) from fresh cultures of the different strains of fungi. For yeasts, the inoculum was adjusted to 0.5-2.5×10^3 CFU/mL. For filamentous fungi, the inoculum was adjusted to 1-3×10^3 CFU/mL for dermatophytes, and 0.4-5×10^4 CFU/mL for all other strains. […] Sterility and growth controls were included in each assay. The 96-well flat-bottomed untreated polystyrene microtiter plates which were incubated for 48 h at 35° C., with the exception of Lichetheimia spp. which was incubated at 25° C. for 48 h, and the dermatophyte strains, which incubated for 5-7 days at 25° C. […] The minimal lethal concentration (MLC) was determined by spreading 20 μL of culture collected from wells showing no visible growth on SDA plates. The MLC was determined as the lowest concentration showing complete growth inhibition after 48 h at 35 degrees C., 48 h at 25 degrees C.

Microsporum canis FF1 = experiment: Antifungal MIC/MLC (broth microdilution); type: cell-based
Source text: as §1, §2

Nannizzia gypsea FF3 = experiment: Antifungal MIC/MLC (broth microdilution); type: cell-based
Source text: as §1, §2

Trichophyton rubrum FF5 = experiment: Antifungal MIC/MLC (broth microdilution); type: cell-based
Source text: as §1, §2

C. albicans ATCC 10231 [2] = experiment: Ergosterol binding assay; type: cell-based, Candida albicans; conditions: 400 μg/mL ergosterol
Protocol: Ceragenins have been described to interact with the lipophilic environment of microbial membranes and ergosterol is the major sterol component of fungal plasma membrane, and the target of several antifungals. As such, in order to evaluate the ability of compound 1 to bind to membrane ergosterol of C. albicans ATCC 10231, MICs were determined in the absence and presence of exogenous ergosterol ([FIG. 10]). If the tested compound has the ability to perturb membrane integrity by binding to ergosterol, is expected that, in the presence of exogenous ergosterol, the compound binds to it, decreasing the amount of compound available to bind to membrane ergosterol, therefore increasing the MIC. Amphotericin B was used as a positive control for this assay and MICs obtained were 8 times higher in the presence of 400 μg/mL of exogenous ergosterol than in its absence (2 to 16 μg/mL, data not shown). […] The ability of compound 1 to bind to membrane ergosterol of C. albicans ATCC 10231, was evaluated by the ergosterol binding assay, as previously described. Briefly, MICs of compound 1 were determined by broth microdilution, as described above, in the absence and presence of ergosterol (Sigma-Aldrich, St. Louis, MO, USA) at a final concentration of 400 μg/mL. Ergosterol was prepared immediately before being added to the plates, by maceration and dissolution in DMSO. The formed emulsion was then homogenized, heated to increase solubility, and diluted in RPMI. Amphotericin B was used as positive control. Plates were incubated at 35° C. for 48 h and MICs were determined as described above. At least two independent assays were performed.

C. albicans ATCC 10231 [3] = experiment: Germ tube formation; type: cell-based, Candida albicans; conditions: 3 h
Protocol: The effect of compound 1 in germ tube formation of C. albicans ATCC 10231 was determined as previously described. Briefly, cell suspensions were prepared in NYP medium (N-acetylglucosamine [Sigma, St. Louis, MO, USA; 10-3 mol/L], yeast nitrogen base [Difco, New Jersey, USA; 3.35 g/L], proline [Fluka, Buchs, St. Gallen, Switzerland; 10^−3 mol/L], and NaCl [4.5 g/L], pH 6.7±0.1) and adjusted to a density of (1.0±0.2)×10^6 CFU/mL, as determined by cell counts using a haemocytometer. An appropriate volume of compound stock solution at 10 mg/mL was added to obtain final concentrations ranging between 64 and 8 μg/mL. Filamentation controls were included in each assay with and without 0.64% DMSO. Following a 3 h incubation at 37° C., 100 cells from each sample were counted, using a haemocytometer, and the percentage of germ tubes was determined. Three independent assays were performed.

For OC(Cn1cncn1)(Cn1cncn1)c1ccc(F)cc1F [Fluconazole, reference compound], the MIC ([1]; ATCC10231, read-out: MIC) was 2 µg/mL (≈ 6.53 µM), the MIC (Microsporum canis FF1; read-out: MIC) was 32 µg/mL (≈ 104 µM) and the MIC (Nannizzia gypsea FF3; read-out: MIC) was 32 µg/mL (≈ 104 µM). The MIC (Trichophyton rubrum FF5; read-out: MIC) was 16 µg/mL (≈ 52.2 µM).
Work on C[C@H](CCC(=O)NCCN)[C@H]1CC[C@H]2[C@@H]3CC[C@@H]4C[C@H](O)CC[C@]4(C)[C@H]3C[C@H](O)[C@]12C [Compound 1, (R)—N-(2-aminoethyl)-4-((3R,5R,8R,9S,10S,12S,13R,14S,17R)-3,12-dihydroxy-10,13-dimethylhexadecahydro-1H-cyclopenta[a]phenanthren-17-yl) pentanamida] yielded an MIC [1] of 64 µg/mL (≈ 147 µM), an MLC [1] of 64 µg/mL (≈ 147 µM) and an MIC (Microsporum canis FF1) of 64 µg/mL (≈ 147 µM). The MLC (Microsporum canis FF1) was 128 µg/mL (≈ 294 µM), the MIC (Nannizzia gypsea FF3) was 32 µg/mL (≈ 73.6 µM) and the MLC (Nannizzia gypsea FF3) was 32 µg/mL (≈ 73.6 µM). The MIC (Trichophyton rubrum FF5) was 32 µg/mL (≈ 73.6 µM), the MLC (Trichophyton rubrum FF5) was 64 µg/mL (≈ 147 µM) and the “effect of exogenous ergosterol on MICs (in words)” value (C. albicans ATCC 10231 [2]) was “unaffected”. The “dimorphic transition / germ tube formation (in words)” value (C. albicans ATCC 10231 [3]; 64 μg/mL (MIC)) was “complete inhibition of dimorphic transition” and the “dimorphic transition / germ tube formation (in words)” value (C. albicans ATCC 10231 [3]; 32 and 16 μg/mL (½×MIC and ¼×MIC)) was “significant inhibition”.

From patent US20250002450A1, “CATIONIC STEROID COMPOUNDS, METHOD OF OBTAINING THEREOF, FORMULATIONS COMPRISING THEREOF AND THEIR USES” (UNIVERSIDADE DO PORTO, priority 2021, published 2025)
